Laboratory results: PubChem BioAssay AID248 (DTP/NCI, 2004)
Several values for one entry are separate records, joined by “and”; a condition that tells them apart may be missing. Identical values can stand only once. Toxic doses and inconclusive results are not listed. No stated cut-off is given here; in the data, active means T/C of 150% or more; inactive means T/C below 125%.

Tested on: L1210 leukemia ip in BDF1 mice, survival T/C
Experiment: NCI In Vivo Anticancer Drug Screen. Data for tumor model L1210 Leukemia (intraperitoneal) in B6D2F1 (BDF1) mice
Settings: endpoint: mean survival time, higher = longer survival
Description: The antitumor activity of compounds was measured in mice bearing transplantable tumors. Survival or tumor size were measured and the results are expressed as the measurement made in the treated group (T) divided by the measurement made in the vehicle treated control group (C). The tumor model used in this assay is L1210 Leukemia (intraperitoneal) in B6D2F1 (BDF1) mice

[1] = dose: 100.0 mg/kg/injection, schedule: Q01DX001 (ip), vehicle: saline
[2] = dose: 200.0 mg/kg/injection, schedule: Q01DX001 (ip), vehicle: saline
[3] = dose: 400.0 mg/kg/injection, schedule: Q01DX001 (ip), vehicle: saline
[4] = dose: 100.0 mg/kg/injection, schedule: Q04DX003 (ip), vehicle: saline with Tween-80
[5] = dose: 200.0 mg/kg/injection, schedule: Q04DX003 (ip), vehicle: saline with Tween-80
[6] = dose: 400.0 mg/kg/injection, schedule: Q04DX003 (ip), vehicle: saline with Tween-80
[7] = dose: 50.0 mg/kg/injection, schedule: Q01DX001 (ip), vehicle: saline
[8] = dose: 100.0 mg/kg/injection, schedule: Q01DX009 (ip), vehicle: saline with Tween-80
[9] = dose: 200.0 mg/kg/injection, schedule: Q01DX009 (ip), vehicle: saline with Tween-80
[10] = dose: 400.0 mg/kg/injection, schedule: Q01DX009 (ip), vehicle: saline with Tween-80
[11] = dose: 50.0 mg/kg/injection, schedule: Q04DX003 (ip), vehicle: Klucel (hydroxypropylcellulose) (HPC)
[12] = dose: 100.0 mg/kg/injection, schedule: Q01DX001 (ip), vehicle: Klucel (hydroxypropylcellulose) (HPC)
[13] = dose: 100.0 mg/kg/injection, schedule: Q04DX003 (ip), vehicle: Klucel (hydroxypropylcellulose) (HPC)
[14] = dose: 200.0 mg/kg/injection, schedule: Q01DX001 (ip), vehicle: Klucel (hydroxypropylcellulose) (HPC)
[15] = dose: 200.0 mg/kg/injection, schedule: Q04DX003 (ip), vehicle: Klucel (hydroxypropylcellulose) (HPC)
[16] = dose: 25.0 mg/kg/injection, schedule: Q01DX009 (ip), vehicle: saline with Tween-80
[17] = dose: 50.0 mg/kg/injection, schedule: Q01DX009 (ip), vehicle: saline with Tween-80
[18] = dose: 100.0 mg/kg/injection, schedule: Q01DX009 (ip), vehicle: saline
[19] = dose: 200.0 mg/kg/injection, schedule: Q01DX009 (ip), vehicle: saline
[20] = dose: 400.0 mg/kg/injection, schedule: Q04DX003 (ip), vehicle: Klucel (hydroxypropylcellulose) (HPC)
[21] = dose: 6.25 mg/kg/injection, schedule: Q01DX009 (ip), vehicle: saline with Tween-80
[22] = dose: 12.5 mg/kg/injection, schedule: Q01DX009 (ip), vehicle: saline with Tween-80

Measured: T/C

Cc1cc(C)c(Br)c(C)c1C
inactive: [1] 104 % of control | [2] 113 % of control | [3] 116 % of control

CN(C)c1ccc(/C=N/NC(=O)C(O)C(O)C(O)C(O)CO)c(Cl)c1 (centres undefined)
inactive: dose: 100.0 mg/kg/injection, schedule: Q04DX002 (ip), vehicle: saline with Tween-80 98 % of control | dose: 200.0 mg/kg/injection, schedule: Q04DX002 (ip), vehicle: saline with Tween-80 91 % of control | dose: 400.0 mg/kg/injection, schedule: Q04DX002 (ip), vehicle: saline with Tween-80 88 % of control

C/C=C\C=C\COC(=O)CC(C)C
inactive: dose: 100.0 mg/kg/injection, schedule: Q04DX002 (ip), vehicle: saline 103 % of control | dose: 200.0 mg/kg/injection, schedule: Q04DX002 (ip), vehicle: saline 103 % of control | dose: 400.0 mg/kg/injection, schedule: Q04DX002 (ip), vehicle: saline 103 % of control

O=C(N/N=C\c1ccccc1Cl)c1ccco1
inactive: dose: 100.0 mg/kg/injection, schedule: Q01DX001 (ip), vehicle: carboxymethylcellulose (CMC) 92 % of control | dose: 200.0 mg/kg/injection, schedule: Q01DX001 (ip), vehicle: carboxymethylcellulose (CMC) 86 % of control

NC(=O)Cn1cnc2cncnc21
inactive: [4] 103 % of control | [5] 111 % of control | [6] 99 % of control

CC1(C)CS(=O)(=O)CC1=O
inactive: dose: 3.0 mg/kg/injection, schedule: Q01DX009 (ip), vehicle: other 103 % of control | dose: 6.0 mg/kg/injection, schedule: Q01DX009 (ip), vehicle: other 102 % of control | dose: 12.0 mg/kg/injection, schedule: Q01DX009 (ip), vehicle: other 94 % of control | dose: 12.0 mg/kg/injection, schedule: Q04DX003 (ip), vehicle: saline 98 % of control | dose: 25.0 mg/kg/injection, schedule: Q01DX009 (ip), vehicle: other 100 % of control | dose: 25.0 mg/kg/injection, schedule: Q04DX003 (ip), vehicle: saline 101 % of control | dose: 50.0 mg/kg/injection, schedule: Q01DX009 (ip), vehicle: other 96 % of control | dose: 50.0 mg/kg/injection, schedule: Q04DX003 (ip), vehicle: saline 106 % of control

COc1cc(CN)cc(OC)c1OC
inactive: [7] 100 % of control | [1] 96 % of control | [2] 96 % of control | [3] 100 % of control

Cc1ccc(C)c(-n2c(-c3ccc(Br)cc3)csc2=NC(=O)c2ccccc2F)c1
inactive: [8] 102 % of control | [4] 101 % of control | [9] 101 % of control | [5] 98 % of control | [10] 93 % of control | [6] 102 % of control

CS(=O)Cc1cccc2ccccc12 (centres undefined)
inactive: [11] 117 % of control | [12] 98 % of control | [13] 104 % of control | [14] 116 % of control | [15] 96 % of control

c1ccc(Cn2ccnc2)cc1
inactive: dose: 3.12 mg/kg/injection, schedule: Q01DX009 (ip), vehicle: water 106 % of control | dose: 6.25 mg/kg/injection, schedule: Q01DX009 (ip), vehicle: water 117 % of control | dose: 12.5 mg/kg/injection, schedule: Q01DX009 (ip), vehicle: water 107 % of control | dose: 25.0 mg/kg/injection, schedule: Q01DX009 (ip), vehicle: water 104 % of control and 108 % of control | dose: 50.0 mg/kg/injection, schedule: Q01DX009 (ip), vehicle: water 96 % of control | dose: 75.0 mg/kg/injection, schedule: Q01DX001 (ip), vehicle: saline 103 % of control

Clc1ccc(-c2ncc3cnccn23)cc1Cl
inactive: [16] 92 % of control | dose: 25.0 mg/kg/injection, schedule: Q04DX003 (ip), vehicle: saline with Tween-80 96 % of control | [17] 96 % of control | dose: 50.0 mg/kg/injection, schedule: Q04DX003 (ip), vehicle: saline with Tween-80 103 % of control | [4] 94 % of control and 96 % of control

CCCCNC(=O)n1ncc2cc([N+](=O)[O-])c([N+](=O)[O-])cc21
inactive: [1] 103 % of control | [2] 97 % of control | [3] 101 % of control

Cc1n[n+]([O-])c(C)cc1[N+](=O)[O-]
inactive: dose: 100.0 mg/kg/injection, schedule: Q04DX002 (ip), vehicle: Klucel (hydroxypropylcellulose) (HPC) 112 % of control | dose: 200.0 mg/kg/injection, schedule: Q04DX002 (ip), vehicle: Klucel (hydroxypropylcellulose) (HPC) 101 % of control

CS(=O)(=O)C(=C(N1CCCCC1)N1CCCCC1)S(=O)(=O)Cc1ccccc1
inactive: [1] 100 % of control | [18] 88 % of control | [2] 96 % of control | [19] 93 % of control | [3] 96 % of control

COC(=O)c1cc(NC(=O)Nc2ccc(F)c(Cl)c2)cc(C(=O)OC)c1
inactive: [18] 98 % of control | [19] 98 % of control | dose: 400.0 mg/kg/injection, schedule: Q01DX009 (ip), vehicle: saline 102 % of control

O=C(Nc1ccc([N+](=O)[O-])cc1Cl)Oc1cccc2ccccc12
inactive: dose: 100.0 mg/kg/injection, schedule: Q01DX009 (ip), vehicle: Klucel (hydroxypropylcellulose) (HPC) 96 % of control | [13] 105 % of control | dose: 200.0 mg/kg/injection, schedule: Q01DX009 (ip), vehicle: Klucel (hydroxypropylcellulose) (HPC) 96 % of control | [15] 105 % of control | dose: 400.0 mg/kg/injection, schedule: Q01DX009 (ip), vehicle: Klucel (hydroxypropylcellulose) (HPC) 102 % of control | [20] 105 % of control

O=C(O)CSc1ccccc1C(=O)O
inactive: [7] 93 % of control | dose: 75.0 mg/kg/injection, schedule: Q04DX003 (ip), vehicle: Klucel (hydroxypropylcellulose) (HPC) 94 % of control | [12] 96 % of control | [1] 100 % of control | dose: 150.0 mg/kg/injection, schedule: Q04DX003 (ip), vehicle: Klucel (hydroxypropylcellulose) (HPC) 90 % of control | [14] 120 % of control | [2] 102 % of control | dose: 300.0 mg/kg/injection, schedule: Q04DX003 (ip), vehicle: Klucel (hydroxypropylcellulose) (HPC) 92 % of control | dose: 400.0 mg/kg/injection, schedule: Q01DX001 (ip), vehicle: Klucel (hydroxypropylcellulose) (HPC) 102 % of control

CC(=O)Oc1cc2c3c(c1)CCCN3CCC2
inactive: dose: 1.25 mg/kg/injection, schedule: Q01DX009 (ip), vehicle: saline 101 % of control | dose: 2.5 mg/kg/injection, schedule: Q01DX009 (ip), vehicle: saline 106 % of control | dose: 5.0 mg/kg/injection, schedule: Q01DX009 (ip), vehicle: saline 98 % of control

CCOC(=O)CCCCCCCCC(=O)Nc1ccc([N+](=O)[O-])cc1O
inactive: [13] 103 % of control | [15] 100 % of control | [20] 101 % of control

O=S1(=O)C=C(c2ccccc2)C(c2ccccc2)=C1
inactive: dose: 3.12 mg/kg/injection, schedule: Q01DX009 (ip), vehicle: saline with Tween-80 98 % of control | [21] 106 % of control | [22] 101 % of control | [16] 101 % of control and 108 % of control | dose: 25.0 mg/kg/injection, schedule: Q04DX003 (ip), vehicle: Klucel (hydroxypropylcellulose) (HPC) 95 % of control | [17] 95 % of control | [11] 102 % of control | [13] 118 % of control and 91 % of control

O=[N+]([O-])c1ccc2ncsc2c1
inactive: [8] 98 % of control | [4] 112 % of control | [9] 98 % of control | [5] 102 % of control | [10] 98 % of control | [6] 104 % of control

COc1ccc(N=C=S)cc1N=C=S
inactive: [21] 101 % of control | [22] 103 % of control | [16] 104 % of control
